Target: human mu-opioid peptide (hMOP) receptor (Homo sapiens (Human), UniProt P35372)
Assay: hMOP receptor binding assay (SPA, [3H]naloxone)

human mu-opioid peptide (hMOP) receptor, sequence (P35372 whole entry): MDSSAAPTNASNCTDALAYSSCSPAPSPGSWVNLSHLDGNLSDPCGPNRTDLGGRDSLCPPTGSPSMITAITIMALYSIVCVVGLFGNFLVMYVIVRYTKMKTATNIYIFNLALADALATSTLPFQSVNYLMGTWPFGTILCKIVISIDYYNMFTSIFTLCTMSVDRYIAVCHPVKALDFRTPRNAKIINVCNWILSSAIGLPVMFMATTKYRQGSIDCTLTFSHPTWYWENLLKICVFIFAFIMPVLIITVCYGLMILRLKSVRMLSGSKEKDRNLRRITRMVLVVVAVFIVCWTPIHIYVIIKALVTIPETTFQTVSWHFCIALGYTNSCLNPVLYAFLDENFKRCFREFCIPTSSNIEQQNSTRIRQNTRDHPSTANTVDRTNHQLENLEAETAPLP

Q: `CN(C)[C@]1(c2ccccc2)CC[C@]2(CC1)CN(CC(C)(C)N1C(=O)CCC1=O)C(=O)N2CC1CC1` [SC_4084, CIS-1-[2-[1-(Cyclopropyl-methyl)-8-dimethylamino-2-oxo-8-phenyl-1,3-diazaspiro[4.5]decan-3-yl]-1,1-dimethyl-ethyl]-pyrrolidine-2,5-dione] was tested. Which Ki did it give?
A: 2.47 µM
